From patent EP2003129B1, “1H-Pyrido[3,4-B]indol-1-one and 2,3,4,9-Tetrahydro-1H-Beta-Carbolin-1-one Derivatives” (Nerviano Medical Sciences S.r.l., priority 2007, dated 2008) come the findings set out here.

Structures are written as SMILES. pIC50: −log10 of the molar value.

Assay [1] has as its target PKAalpha (Homo sapiens, UniProt P17612). Description: Enzyme inhibition activity, PKAalpha. The format is biochemical. The method, then: (§1) Operating as described above in the tests of inhibition activity on enzymes, or in an analogous way, the following data were obtained for 2-methyl-N-{4-[2-(methylamino)-2-oxoethyl]-1-oxo-2,9-dihydro-1H-beta-carbolin-6-yl}hexanamide (Compound XIIIh). The same compound was tested for cytotoxic activity on cells as described below.

Assay [2] deals with T1, JAK3 (Homo sapiens, UniProt P52333).
T1 sequence (P52333 1-1124): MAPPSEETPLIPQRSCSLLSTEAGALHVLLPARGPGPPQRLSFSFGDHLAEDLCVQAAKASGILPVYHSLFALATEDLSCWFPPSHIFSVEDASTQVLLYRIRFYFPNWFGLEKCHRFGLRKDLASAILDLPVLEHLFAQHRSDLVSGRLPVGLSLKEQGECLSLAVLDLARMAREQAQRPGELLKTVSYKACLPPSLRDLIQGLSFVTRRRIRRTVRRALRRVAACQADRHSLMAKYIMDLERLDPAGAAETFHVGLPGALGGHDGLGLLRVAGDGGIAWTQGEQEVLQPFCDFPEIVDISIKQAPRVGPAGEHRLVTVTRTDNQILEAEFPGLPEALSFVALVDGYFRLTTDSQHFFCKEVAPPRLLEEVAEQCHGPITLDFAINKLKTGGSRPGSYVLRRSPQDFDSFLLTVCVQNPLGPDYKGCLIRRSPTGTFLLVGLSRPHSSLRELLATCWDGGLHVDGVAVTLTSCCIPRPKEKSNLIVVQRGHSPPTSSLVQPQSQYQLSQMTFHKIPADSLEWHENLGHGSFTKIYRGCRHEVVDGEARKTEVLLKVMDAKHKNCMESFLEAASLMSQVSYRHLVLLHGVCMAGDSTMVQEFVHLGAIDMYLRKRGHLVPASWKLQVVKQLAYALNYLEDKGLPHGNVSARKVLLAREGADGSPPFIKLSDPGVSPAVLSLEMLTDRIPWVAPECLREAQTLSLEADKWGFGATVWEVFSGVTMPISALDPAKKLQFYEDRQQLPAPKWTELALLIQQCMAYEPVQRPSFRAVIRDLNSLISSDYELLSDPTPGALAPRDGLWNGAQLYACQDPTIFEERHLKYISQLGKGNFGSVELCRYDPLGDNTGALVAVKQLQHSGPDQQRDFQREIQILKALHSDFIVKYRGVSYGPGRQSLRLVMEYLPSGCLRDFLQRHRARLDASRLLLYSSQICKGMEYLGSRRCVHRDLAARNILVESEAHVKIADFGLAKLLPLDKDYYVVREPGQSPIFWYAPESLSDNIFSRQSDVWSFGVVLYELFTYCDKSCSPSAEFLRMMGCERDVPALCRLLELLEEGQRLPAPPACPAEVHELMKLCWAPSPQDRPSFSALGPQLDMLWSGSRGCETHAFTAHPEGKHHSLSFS
Description: Enzyme inhibition activity, JAK3. The format is biochemical. The method, then: as §1

Assay [3] has as its target T2, PDK1 (Homo sapiens, UniProt O15530).
T2 sequence (O15530 1-556): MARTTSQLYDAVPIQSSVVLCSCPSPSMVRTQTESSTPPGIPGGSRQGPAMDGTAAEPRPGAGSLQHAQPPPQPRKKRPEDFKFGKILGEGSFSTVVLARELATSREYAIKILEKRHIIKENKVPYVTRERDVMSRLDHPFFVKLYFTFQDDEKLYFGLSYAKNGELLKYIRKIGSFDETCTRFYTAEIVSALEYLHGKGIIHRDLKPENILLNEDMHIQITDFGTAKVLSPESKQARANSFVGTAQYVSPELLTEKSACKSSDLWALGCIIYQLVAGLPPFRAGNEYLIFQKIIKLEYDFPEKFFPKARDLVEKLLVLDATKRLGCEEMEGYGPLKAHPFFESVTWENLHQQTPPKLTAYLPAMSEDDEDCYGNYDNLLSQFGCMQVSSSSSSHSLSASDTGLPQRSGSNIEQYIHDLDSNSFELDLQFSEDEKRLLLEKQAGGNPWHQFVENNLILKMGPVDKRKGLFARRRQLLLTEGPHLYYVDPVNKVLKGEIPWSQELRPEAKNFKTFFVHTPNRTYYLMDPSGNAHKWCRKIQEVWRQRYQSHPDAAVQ
Put plainly: Enzyme inhibition activity, PDK1. The assay is classed as biochemical. The method, then:
as §1

For assay [4], the target named is T3, AUR2 (Homo sapiens, UniProt O14965).
T3 sequence (O14965 1-403): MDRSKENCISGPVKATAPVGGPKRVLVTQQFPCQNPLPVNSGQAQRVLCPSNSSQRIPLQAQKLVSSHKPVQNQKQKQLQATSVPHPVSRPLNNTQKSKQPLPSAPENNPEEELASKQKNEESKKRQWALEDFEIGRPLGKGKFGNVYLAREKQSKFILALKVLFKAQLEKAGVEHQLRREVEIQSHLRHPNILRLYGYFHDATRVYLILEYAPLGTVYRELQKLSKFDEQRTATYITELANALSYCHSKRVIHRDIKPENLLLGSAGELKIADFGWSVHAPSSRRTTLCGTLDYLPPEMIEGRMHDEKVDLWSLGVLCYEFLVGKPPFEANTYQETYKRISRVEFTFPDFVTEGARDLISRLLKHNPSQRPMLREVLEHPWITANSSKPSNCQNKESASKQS
Description: Inhibition assay of Aurora-2 activity. The format is biochemical. Particulars: Enzyme AUR2. The procedure:
Inhibition assay of Aurora-2 activity
The inhibiting activity and the potency of selected compounds was determined through a method of assay based on the use of the streptavidin scintillation proximity assay beads (amershampharmacia biotech) run in a 96 well plates. At the end of the reaction, the biotinylated peptide substrate was captured with the beads and subsequently allowed to stratify using CsCl. When a radioactivity labeled phosphate moiety was transferred by the kinase to the beads-bound peptide, light emitted was measured in a scintillation counter.
The inhibition assay of Aurora-2 activity was performed in 96 wells plate according to the following protocol:
8 µM biotinylated peptide (4 repeats of LRRWSLG), 10 µM ATP (0.5 uCi P^33g-ATP), 10 nM Aurora2, 10 µM inhibitor in a final volume of 60 µl buffer (HEPES 50 mM pH 7.0, MgCl2 10 mM, 1 mM DTT, 0.125 mg/ml BSA, 3µM orthovanadate) were added to each well of a 96 U bottom well plate. After 30 minutes at room temperature incubation, reaction was stopped and biotinylated peptide captured by adding 100 µl of bead suspension.
100 µl of CsCl 7.5 M were added to each well and let stand one hour before radioactivity was counted in the Top-Count instrument.
Results: data were analyzed and expressed as % inhibition referred to total activity of enzyme (=100%). […]

For assay [5], the target named is FGFR1 (Homo sapiens, UniProt P11362). Description: Enzyme inhibition activity, FGFR1. The format is biochemical. The procedure: as §1
For assay [6], the target named is RET (Homo sapiens, UniProt P07949). Description: Enzyme inhibition activity, RET. The format is biochemical. The method, then: as §1
The target of assay [7] is VEGFR3 (Homo sapiens, UniProt P35916). Put plainly: Enzyme inhibition activity, VEGFR3. The format is biochemical. The procedure:
as §1

Assay [8] deals with T4, CDK2/CYCA (Homo sapiens, UniProt P24941).
T4 construct: made in house
Put plainly: Inhibition assay of Cdk2/Cyclin A activity. The format is biochemical. Particulars: Enzyme CDK2/CYCA. The method, then: Inhibition assay of Cdk2/Cyclin A activity
1.5 µM histone H1 substrate, 25 µM ATP (0.2 µCi P33γ-ATP), 30 ng of baculovirus co-expressed Cdk2/Cyclin A, 10 µM inhibitor in a final volume of 100 µl buffer (TRIS HCl 10 mM pH 7.5, MgCl2 10 mM, 7.5 mM DTT) were added to each well of a 96 U bottom well plate. After 10 min at 37 °C incubation, reaction was stopped by 20 µl EDTA 120 mM.
100 µl were transferred from each well from the kinase reaction to MultiScreen plate, to allow substrate binding to phosphocellulose filter. Plates were then washed 3 times with 150 µl/well PBS Ca^++/Mg^++ free and filtered by MultiScreen filtration system.
Filters were allowed to dry at 37°C, then 100 µl/well scintillant were added and 33P labeled histone H1 was detected by radioactivity counting in the Top-Count instrument. Results: data were analyzed and expressed as % inhibition referred to total activity of enzyme (=100%).
All compounds showing inhibition ≥ 50 % were further analyzed in order to study and define potency (IC50) as well as the kinetic-profile of inhibitor through Ki calculation. IC50 determination: the protocol used was the same described above, where inhibitors were tested at different concentrations ranging from 0.0045 to 10 µM. […]

Assay [9] addresses VEGFR2 (Homo sapiens, UniProt P35968). Description: Enzyme inhibition activity, VEGFR2. The format is biochemical. The procedure: as §1
For assay [10], the target named is GSK3beta (Homo sapiens, UniProt P49841). Description: Enzyme inhibition activity, GSK3beta. The assay is classed as biochemical. The method, then: as §1
Assay [11] concerns A2780. Description: Cytotoxic activity on cells (cell proliferation, cellular ATP monitoring). The assay is classed as cell-based. Particulars: Homo sapiens; Cell Type A2780; concentration inhibiting cell proliferation by 50%; 72 hours treatment. The procedure:
Exponentially growing cells A2780 were seeded and incubated at 37°C in a humidified 5% CO2 atmosphere. After 24 hours, scalar doses of test compound were added to the medium and cells were incubated for additional 72 hours.
At the end of treatment, cell proliferation was determined by a cellular ATP monitoring system which consists of a mixture of luciferase and luciferin, reconstituted in a lysis buffer; 100 µL/well of this solution were added to the cells. The plates were then shaken for 2 minutes in an orbital shaker and were read in a luminometer, with the signal linearly proportional to the cell number.

The target in assay [12] is AUR1 (Homo sapiens, UniProt Q96GD4). Description: Enzyme inhibition activity, AUR1. The assay is classed as biochemical. The procedure: as §1
Sequence of AUR1 (Q96GD4 whole entry): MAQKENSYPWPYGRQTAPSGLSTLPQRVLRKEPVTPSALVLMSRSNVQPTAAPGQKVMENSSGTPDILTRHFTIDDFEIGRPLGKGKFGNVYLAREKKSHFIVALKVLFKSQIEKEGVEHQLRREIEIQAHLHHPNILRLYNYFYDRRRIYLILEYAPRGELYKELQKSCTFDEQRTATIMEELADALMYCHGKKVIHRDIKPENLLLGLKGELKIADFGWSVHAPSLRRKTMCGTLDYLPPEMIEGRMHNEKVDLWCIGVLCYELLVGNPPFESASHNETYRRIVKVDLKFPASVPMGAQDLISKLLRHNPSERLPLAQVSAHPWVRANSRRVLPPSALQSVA

Sequence of FGFR1 (P11362 22-822, species assumed): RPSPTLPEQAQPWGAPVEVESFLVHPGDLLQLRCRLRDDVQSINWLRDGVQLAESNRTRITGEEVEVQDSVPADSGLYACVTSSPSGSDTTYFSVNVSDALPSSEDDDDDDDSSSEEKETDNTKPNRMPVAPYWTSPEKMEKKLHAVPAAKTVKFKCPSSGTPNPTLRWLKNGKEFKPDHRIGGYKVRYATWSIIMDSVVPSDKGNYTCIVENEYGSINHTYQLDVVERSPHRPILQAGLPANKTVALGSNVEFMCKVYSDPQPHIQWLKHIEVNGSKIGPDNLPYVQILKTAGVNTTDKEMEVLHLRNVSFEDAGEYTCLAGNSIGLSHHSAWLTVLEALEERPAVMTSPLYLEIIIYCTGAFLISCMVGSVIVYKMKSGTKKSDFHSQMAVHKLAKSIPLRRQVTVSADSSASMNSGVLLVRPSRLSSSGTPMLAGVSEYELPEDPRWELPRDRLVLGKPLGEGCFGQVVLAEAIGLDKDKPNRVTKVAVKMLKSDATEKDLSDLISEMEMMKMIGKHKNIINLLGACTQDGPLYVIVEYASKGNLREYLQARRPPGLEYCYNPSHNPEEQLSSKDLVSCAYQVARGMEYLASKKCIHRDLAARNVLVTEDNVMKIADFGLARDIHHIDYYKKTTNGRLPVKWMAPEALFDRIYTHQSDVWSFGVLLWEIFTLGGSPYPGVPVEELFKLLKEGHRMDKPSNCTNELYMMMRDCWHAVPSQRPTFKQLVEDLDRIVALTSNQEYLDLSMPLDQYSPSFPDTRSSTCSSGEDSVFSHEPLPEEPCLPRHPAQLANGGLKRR
Sequence of VEGFR3 (P35916 25-1363, species assumed): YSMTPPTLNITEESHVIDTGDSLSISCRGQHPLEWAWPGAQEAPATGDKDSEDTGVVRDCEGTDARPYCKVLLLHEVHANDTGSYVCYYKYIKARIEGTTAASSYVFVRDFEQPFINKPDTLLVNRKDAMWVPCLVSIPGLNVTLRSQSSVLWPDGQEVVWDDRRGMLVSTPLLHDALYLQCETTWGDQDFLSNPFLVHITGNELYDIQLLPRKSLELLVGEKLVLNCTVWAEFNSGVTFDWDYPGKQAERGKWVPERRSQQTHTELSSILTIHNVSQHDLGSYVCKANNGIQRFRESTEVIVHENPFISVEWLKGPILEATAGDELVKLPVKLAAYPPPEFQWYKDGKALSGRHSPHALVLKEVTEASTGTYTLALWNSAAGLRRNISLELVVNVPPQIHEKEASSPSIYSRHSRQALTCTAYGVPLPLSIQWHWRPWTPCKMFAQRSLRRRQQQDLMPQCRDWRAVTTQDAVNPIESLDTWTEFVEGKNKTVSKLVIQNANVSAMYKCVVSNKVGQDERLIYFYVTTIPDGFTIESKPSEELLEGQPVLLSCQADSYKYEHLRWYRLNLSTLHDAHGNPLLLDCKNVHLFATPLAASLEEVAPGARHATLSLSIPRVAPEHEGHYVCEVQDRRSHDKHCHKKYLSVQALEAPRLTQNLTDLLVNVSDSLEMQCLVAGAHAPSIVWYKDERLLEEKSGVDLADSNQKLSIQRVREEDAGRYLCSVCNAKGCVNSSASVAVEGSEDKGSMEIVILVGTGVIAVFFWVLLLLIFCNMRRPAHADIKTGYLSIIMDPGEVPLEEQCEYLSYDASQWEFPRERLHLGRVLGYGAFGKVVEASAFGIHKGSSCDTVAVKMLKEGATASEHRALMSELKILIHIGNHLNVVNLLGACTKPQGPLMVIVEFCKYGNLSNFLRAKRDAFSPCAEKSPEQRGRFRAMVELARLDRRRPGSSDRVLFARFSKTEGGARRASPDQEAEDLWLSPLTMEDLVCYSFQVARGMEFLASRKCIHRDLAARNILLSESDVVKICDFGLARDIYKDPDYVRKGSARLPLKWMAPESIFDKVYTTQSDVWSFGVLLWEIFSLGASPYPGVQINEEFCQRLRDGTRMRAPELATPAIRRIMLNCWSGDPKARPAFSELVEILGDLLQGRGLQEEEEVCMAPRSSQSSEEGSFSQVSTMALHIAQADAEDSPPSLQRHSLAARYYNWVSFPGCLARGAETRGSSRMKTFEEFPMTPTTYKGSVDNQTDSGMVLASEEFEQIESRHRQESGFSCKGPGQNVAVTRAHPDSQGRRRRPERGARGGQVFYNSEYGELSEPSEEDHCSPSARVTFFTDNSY
Sequence of GSK3beta (P49841 whole entry, species assumed): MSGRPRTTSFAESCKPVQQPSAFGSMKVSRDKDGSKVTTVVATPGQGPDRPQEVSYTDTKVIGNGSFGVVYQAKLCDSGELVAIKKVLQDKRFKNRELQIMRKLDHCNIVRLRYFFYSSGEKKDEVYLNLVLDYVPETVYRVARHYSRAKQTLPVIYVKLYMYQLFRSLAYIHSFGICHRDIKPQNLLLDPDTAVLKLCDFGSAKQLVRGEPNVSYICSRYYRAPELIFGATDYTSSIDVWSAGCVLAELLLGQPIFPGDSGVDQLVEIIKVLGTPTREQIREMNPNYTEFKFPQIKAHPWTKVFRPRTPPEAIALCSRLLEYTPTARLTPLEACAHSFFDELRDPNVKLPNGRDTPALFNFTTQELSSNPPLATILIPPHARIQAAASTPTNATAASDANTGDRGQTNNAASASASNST
Sequence of VEGFR2 (P35968 20-1356, species assumed): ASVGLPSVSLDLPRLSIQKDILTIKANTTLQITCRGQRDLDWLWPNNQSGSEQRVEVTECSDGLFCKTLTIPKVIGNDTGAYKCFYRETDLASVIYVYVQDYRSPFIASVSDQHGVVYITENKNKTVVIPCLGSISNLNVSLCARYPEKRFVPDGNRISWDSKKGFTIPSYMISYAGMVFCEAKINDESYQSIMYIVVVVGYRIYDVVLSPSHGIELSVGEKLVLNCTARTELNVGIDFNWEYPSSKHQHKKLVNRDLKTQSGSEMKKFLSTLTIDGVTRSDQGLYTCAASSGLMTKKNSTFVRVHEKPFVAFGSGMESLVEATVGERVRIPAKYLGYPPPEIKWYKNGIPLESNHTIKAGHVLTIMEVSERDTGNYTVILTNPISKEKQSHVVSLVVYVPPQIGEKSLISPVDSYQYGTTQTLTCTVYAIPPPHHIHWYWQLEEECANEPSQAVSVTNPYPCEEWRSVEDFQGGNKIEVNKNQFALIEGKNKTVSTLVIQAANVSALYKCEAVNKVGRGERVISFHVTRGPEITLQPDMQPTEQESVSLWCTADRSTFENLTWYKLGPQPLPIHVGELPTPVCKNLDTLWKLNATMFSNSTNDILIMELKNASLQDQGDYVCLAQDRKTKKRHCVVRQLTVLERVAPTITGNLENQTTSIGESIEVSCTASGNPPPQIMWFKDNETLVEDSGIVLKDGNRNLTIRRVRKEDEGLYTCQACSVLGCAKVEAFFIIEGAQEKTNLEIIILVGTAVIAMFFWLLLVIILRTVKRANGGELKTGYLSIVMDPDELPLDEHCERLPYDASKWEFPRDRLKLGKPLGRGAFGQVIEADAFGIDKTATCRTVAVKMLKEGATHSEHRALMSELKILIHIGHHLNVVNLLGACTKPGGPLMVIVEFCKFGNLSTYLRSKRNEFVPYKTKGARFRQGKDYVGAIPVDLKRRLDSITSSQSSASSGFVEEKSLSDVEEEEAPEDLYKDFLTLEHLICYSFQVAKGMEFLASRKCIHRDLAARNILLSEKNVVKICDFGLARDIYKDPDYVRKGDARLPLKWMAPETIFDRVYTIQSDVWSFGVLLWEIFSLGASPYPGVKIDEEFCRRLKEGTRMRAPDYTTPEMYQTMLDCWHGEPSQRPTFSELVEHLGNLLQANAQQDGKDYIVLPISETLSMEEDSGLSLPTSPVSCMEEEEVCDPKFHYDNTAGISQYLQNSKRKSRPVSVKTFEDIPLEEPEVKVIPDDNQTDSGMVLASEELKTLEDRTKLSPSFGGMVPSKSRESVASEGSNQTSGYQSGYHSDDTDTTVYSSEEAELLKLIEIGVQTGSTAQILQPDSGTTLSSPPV

Take `CCCCC(C)C(=O)Nc1ccc2[nH]c3c(=O)[nH]cc(CC(=O)NC)c3c2c1` (stereo not drawn) [Compound XIIIh, 2-Methyl-N-{4-[2-(methylamino)-2-oxoethyl]-1-oxo-2,9-dihydro-1H-beta-carbolin-6-yl}hexanamide]: the negative-log IC50 (pIC50) (commonly the IC50 on a negative log10 scale, so that one unit is a factor of ten) in [1] is 6.06; in [2], 5.75; in assay [3], 5.88; in [4], 7.29; in assay [5] it was 5.60; in assay [6] it was 5.97. The pIC50 in assay [7] was 6.23; in [8], 5.77; in assay [9] it was 5.72; in assay [10], 5.72; in assay [11], 5.44; in [12], 6.37.
